This note sets out measurements from paper PMC5668434, “Modulation of telomere protection by the PI3K/AKT pathway” (Nature Communications, 2017).

Experiment [1] relates to PRAS40 (T246) and pS6 (S235/236) in CHA 9-3 cells. Nature of the experiment: Western blot of PI3K downstream targets PRAS40 (T246) and pS6 (S235/236). The class given is cell-based, mouse. The note with it: 10 μM. On the procedure:
We also determined the effect of ETP-47037 and ETP-47228 in the inhibition of other PI3K downstream targets, PRAS40 (T246), and pS6 (S235/236)[64], [65] (Supplementary Fig. 1).
For detection of AKT, PRAS40 (T246) and pS6 in CHA9.3 cells, untreated control (DMSO) or treated with the indicated inhibitors, were lysed in RIPA buffer supplemented with 100 mM pefablock (Roche Diagnostics) and protease inhibitor cocktail (Roche Molecular Biochemicals). Proteins were resolved on 10% SDS-PAGE, and transferred to nitrocellulose membrane (Amersham^TM Protan^TM 0.2 µm nNC). Membranes were incubated with antibodies against phospho-AKT (Ser473), AKT, phospo-S6 (Ser 235/236), and S6Ribosomal from Cell Signaling, phospo-PRAS40 (Thr246) from BIOSURCE and anti α-tubulin form Sigma, overnight at 4 °C. After washing, blots were incubated with secondary antibody: Alexa Fluor 680 goat anti-rabbit IgG (Invitrogen) or anti-mouse IgG DyLight 800 conjugated (Thermo Scientific), and visualized using an Odyssey infrared imaging system (Li-Cor Biosciences).
Supplementary Figure 1. Modulation of PI3K/AKT downstream targets by ETP-47037 and ETP-47228. Representative Western blot images of PRAS40 phosphorylation at T246 and of P6 at S235/236 in CHIA 9-3 lung cancer cell line treated for 24 hours with 10 µM of ETP-47037 or with 10 µM of ETP-47228 at different time points of the treatment. […]
(Immunoblotting shows a protein as a band on a membrane.)

For another experiment, the target named is T1, AKT2 (Homo sapiens, UniProt P31751).
T1 construct: purchased ProQinase
T1 sequence (P31751 whole entry): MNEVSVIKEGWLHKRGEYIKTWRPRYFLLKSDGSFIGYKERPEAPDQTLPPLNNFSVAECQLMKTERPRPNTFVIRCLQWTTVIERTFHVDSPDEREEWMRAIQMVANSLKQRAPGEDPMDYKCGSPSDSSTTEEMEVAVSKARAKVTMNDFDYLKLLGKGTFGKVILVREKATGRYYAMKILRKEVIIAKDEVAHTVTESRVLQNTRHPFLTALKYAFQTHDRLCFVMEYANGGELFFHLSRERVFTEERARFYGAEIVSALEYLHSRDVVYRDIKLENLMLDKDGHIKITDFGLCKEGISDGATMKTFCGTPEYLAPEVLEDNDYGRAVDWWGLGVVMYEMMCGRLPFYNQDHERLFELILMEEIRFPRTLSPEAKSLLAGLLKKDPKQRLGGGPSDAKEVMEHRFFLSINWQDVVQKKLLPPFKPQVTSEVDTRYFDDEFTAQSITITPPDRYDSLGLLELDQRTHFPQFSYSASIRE
Briefly: ProQinase kinase panel. The class given is biochemical. The note with it: read-out: Inh (%) at 1µM, AKT2. On the procedure:
(§1) Supplementary Table 1: Kinase selectivity profile of ETP-47037 and ETP-47228 at 1 µM. Selectivity against protein kinases was determined from evaluation of compounds at 1µM in ProQinase’s 24 selected panel that represents the ACG, STE, TKL, TK, CMGC CAMK and CK1 kinase families.

The next experiment concerns the target T2, B-RAF-V600E (Homo sapiens, UniProt P15056, V600E).
T2 construct: purchased ProQinase
Briefly: ProQinase kinase panel. The class given is biochemical. The note with it: read-out: Inh (%) at 1µM, B-RAF-V600E. On the procedure: as §1

A further experiment has as its target T3, CDK8-CycC (Homo sapiens, UniProt P49336).
T3 construct: purchased ProQinase
Briefly: ProQinase kinase panel. The note with it: read-out: Inh (%) at 1µM, CDK8-CycC. The class given is biochemical. On the procedure:
as §1

The target of the next experiment is T4, CHK1 (Homo sapiens, UniProt O14757).
T4 construct: purchased ProQinase
Nature of the experiment: ProQinase kinase panel. It is filed as biochemical. The note with it: read-out: Inh (%) at 1µM, CHK1. On the procedure:
as §1

In the next experiment the target is T5, CHK2 (Homo sapiens, UniProt O96017).
T5 construct: purchased ProQinase
Nature of the experiment: ProQinase kinase panel. It is filed as biochemical. The note with it: read-out: Inh (%) at 1µM, CHK2. On the procedure: as §1

The target in a further experiment is T6, DYRK1A (Homo sapiens, UniProt Q13627).
T6 construct: purchased ProQinase
Nature of the experiment: ProQinase kinase panel. It is filed as biochemical. The note with it: read-out: Inh (%) at 1µM, DYRK1A. On the procedure: as §1

The target in a further experiment is T7, EGF-R (Homo sapiens, UniProt P00533).
T7 construct: purchased ProQinase
Briefly: ProQinase kinase panel. It is filed as biochemical. The following applies: read-out: Inh (%) at 1µM, EGF-R. On the procedure:
as §1

The target in a further experiment is T8, FAK (Homo sapiens, UniProt Q05397).
T8 construct: purchased ProQinase
T8 sequence (Q05397 whole entry): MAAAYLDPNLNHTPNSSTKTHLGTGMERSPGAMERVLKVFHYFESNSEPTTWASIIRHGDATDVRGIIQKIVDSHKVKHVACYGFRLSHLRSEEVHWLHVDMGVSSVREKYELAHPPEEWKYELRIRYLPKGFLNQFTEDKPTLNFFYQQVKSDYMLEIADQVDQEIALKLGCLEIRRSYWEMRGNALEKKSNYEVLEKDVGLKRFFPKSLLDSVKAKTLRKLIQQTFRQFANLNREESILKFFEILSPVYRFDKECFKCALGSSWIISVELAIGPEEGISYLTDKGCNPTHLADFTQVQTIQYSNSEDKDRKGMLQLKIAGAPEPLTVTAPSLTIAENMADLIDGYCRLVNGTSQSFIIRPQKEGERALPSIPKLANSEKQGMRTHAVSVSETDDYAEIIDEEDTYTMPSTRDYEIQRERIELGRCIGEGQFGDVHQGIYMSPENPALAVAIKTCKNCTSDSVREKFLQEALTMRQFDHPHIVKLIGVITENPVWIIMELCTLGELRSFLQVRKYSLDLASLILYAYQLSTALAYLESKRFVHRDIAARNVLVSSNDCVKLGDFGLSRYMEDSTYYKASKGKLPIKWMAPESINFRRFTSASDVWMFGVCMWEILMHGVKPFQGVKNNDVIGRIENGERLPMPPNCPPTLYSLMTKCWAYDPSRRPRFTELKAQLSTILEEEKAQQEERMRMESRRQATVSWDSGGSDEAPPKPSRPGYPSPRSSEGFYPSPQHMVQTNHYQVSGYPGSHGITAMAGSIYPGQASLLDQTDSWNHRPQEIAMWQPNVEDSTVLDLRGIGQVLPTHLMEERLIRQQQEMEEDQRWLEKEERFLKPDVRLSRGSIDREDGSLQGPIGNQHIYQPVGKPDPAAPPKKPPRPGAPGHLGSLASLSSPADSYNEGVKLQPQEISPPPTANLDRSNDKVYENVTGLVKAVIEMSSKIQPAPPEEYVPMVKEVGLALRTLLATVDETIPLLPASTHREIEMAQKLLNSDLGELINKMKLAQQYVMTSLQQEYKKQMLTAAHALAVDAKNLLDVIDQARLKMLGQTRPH
Briefly: ProQinase kinase panel. The class given is biochemical. The following applies: read-out: Inh (%) at 1µM, FAK. On the procedure: as §1

For another experiment, the target named is T9, FGF-R1 (Homo sapiens, UniProt P11362).
T9 construct: purchased ProQinase
Nature of the experiment: ProQinase kinase panel. The class given is biochemical. The following applies: read-out: Inh (%) at 1µM, FGF-R1. On the procedure: as §1

A further experiment deals with T10, IGF1-R (Homo sapiens, UniProt P08069).
T10 construct: purchased ProQinase
Nature of the experiment: ProQinase kinase panel. It is filed as biochemical. The following applies: read-out: Inh (%) at 1µM, IGF1-R. On the procedure:
as §1

In the next experiment the target is T11, IKK-beta (Homo sapiens, UniProt O14920).
T11 construct: purchased ProQinase
Nature of the experiment: ProQinase kinase panel. It is filed as biochemical. The note with it: read-out: Inh (%) at 1µM, IKK-beta. On the procedure:
as §1

In the next experiment the target is T12, INS-R (Homo sapiens, UniProt P06213).
T12 construct: purchased ProQinase
Briefly: ProQinase kinase panel. The class given is biochemical. The note with it: read-out: Inh (%) at 1µM, INS-R. On the procedure: as §1

Another experiment concerns the target T13, JAK2 (Homo sapiens, UniProt O60674).
T13 construct: purchased ProQinase
Briefly: ProQinase kinase panel. It is filed as biochemical. The note with it: read-out: Inh (%) at 1µM, JAK2. On the procedure:
as §1

A further experiment concerns the target T14, KIT (Homo sapiens, UniProt P10721).
T14 construct: purchased ProQinase
Nature of the experiment: ProQinase kinase panel. It is filed as biochemical. The following applies: read-out: Inh (%) at 1µM, KIT. On the procedure:
as §1

The next experiment has as its target T15, MEK1 (Homo sapiens, UniProt Q02750).
T15 construct: purchased ProQinase
Nature of the experiment: ProQinase kinase panel. The following applies: read-out: Inh (%) at 1µM, MEK1. The class given is biochemical. On the procedure: as §1

A further experiment has as its target T16, MET (Homo sapiens, UniProt P08581).
T16 construct: purchased ProQinase
Nature of the experiment: ProQinase kinase panel. It is filed as biochemical. The note with it: read-out: Inh (%) at 1µM, MET. On the procedure:
as §1

A further experiment has as its target T17, PAK1 (Homo sapiens, UniProt Q13153).
T17 construct: purchased ProQinase
Nature of the experiment: ProQinase kinase panel. It is filed as biochemical. The following applies: read-out: Inh (%) at 1µM, PAK1. On the procedure:
as §1

In another experiment the target is T18, PDGFR-alpha (Homo sapiens, UniProt P16234).
T18 construct: purchased ProQinase
Briefly: ProQinase kinase panel. The class given is biochemical. The following applies: read-out: Inh (%) at 1µM, PDGFR-alpha. On the procedure:
as §1

In another experiment the target is T19, PDK1 (Homo sapiens, UniProt O15530).
T19 construct: purchased ProQinase
Nature of the experiment: ProQinase kinase panel. It is filed as biochemical. The note with it: read-out: Inh (%) at 1µM, PDK1. On the procedure:
as §1

Another experiment deals with T20, RPS6KA1 (Homo sapiens, UniProt Q15418).
T20 construct: purchased ProQinase
T20 sequence (Q15418 whole entry): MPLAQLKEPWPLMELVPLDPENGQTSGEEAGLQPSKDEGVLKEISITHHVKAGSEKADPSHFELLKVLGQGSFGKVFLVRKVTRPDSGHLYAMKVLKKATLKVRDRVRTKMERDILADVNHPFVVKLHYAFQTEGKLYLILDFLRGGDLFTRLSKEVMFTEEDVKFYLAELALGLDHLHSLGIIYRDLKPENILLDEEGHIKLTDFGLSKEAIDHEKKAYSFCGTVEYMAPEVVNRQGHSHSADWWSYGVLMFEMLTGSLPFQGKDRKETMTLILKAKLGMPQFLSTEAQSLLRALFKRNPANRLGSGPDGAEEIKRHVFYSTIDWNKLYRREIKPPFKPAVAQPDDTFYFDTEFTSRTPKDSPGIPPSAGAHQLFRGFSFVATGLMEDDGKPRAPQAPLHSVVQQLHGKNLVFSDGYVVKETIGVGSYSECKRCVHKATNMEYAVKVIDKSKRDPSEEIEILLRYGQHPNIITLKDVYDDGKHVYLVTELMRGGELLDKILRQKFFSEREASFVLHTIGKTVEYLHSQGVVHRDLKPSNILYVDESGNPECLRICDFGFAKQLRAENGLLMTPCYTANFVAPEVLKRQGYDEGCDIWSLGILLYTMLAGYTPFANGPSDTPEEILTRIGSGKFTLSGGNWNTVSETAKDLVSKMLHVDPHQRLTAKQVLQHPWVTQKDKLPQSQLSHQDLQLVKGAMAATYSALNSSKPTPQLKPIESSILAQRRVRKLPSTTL
Nature of the experiment: ProQinase kinase panel. The class given is biochemical. The note with it: read-out: Inh (%) at 1µM, RPS6KA1. On the procedure:
as §1

The target of another experiment is T21, SGK1 (Homo sapiens, UniProt O00141).
T21 construct: purchased ProQinase
Nature of the experiment: ProQinase kinase panel. The class given is biochemical. The following applies: read-out: Inh (%) at 1µM, SGK1. On the procedure: as §1

Another experiment addresses T22, SRC (Homo sapiens, UniProt P12931).
T22 construct: purchased ProQinase
Nature of the experiment: ProQinase kinase panel. It is filed as biochemical. The note with it: read-out: Inh (%) at 1µM, SRC. On the procedure:
as §1

In a further experiment the target is T23, VEGF-R2 (Homo sapiens, UniProt P35968).
T23 construct: purchased ProQinase
T23 sequence (P35968 20-1356): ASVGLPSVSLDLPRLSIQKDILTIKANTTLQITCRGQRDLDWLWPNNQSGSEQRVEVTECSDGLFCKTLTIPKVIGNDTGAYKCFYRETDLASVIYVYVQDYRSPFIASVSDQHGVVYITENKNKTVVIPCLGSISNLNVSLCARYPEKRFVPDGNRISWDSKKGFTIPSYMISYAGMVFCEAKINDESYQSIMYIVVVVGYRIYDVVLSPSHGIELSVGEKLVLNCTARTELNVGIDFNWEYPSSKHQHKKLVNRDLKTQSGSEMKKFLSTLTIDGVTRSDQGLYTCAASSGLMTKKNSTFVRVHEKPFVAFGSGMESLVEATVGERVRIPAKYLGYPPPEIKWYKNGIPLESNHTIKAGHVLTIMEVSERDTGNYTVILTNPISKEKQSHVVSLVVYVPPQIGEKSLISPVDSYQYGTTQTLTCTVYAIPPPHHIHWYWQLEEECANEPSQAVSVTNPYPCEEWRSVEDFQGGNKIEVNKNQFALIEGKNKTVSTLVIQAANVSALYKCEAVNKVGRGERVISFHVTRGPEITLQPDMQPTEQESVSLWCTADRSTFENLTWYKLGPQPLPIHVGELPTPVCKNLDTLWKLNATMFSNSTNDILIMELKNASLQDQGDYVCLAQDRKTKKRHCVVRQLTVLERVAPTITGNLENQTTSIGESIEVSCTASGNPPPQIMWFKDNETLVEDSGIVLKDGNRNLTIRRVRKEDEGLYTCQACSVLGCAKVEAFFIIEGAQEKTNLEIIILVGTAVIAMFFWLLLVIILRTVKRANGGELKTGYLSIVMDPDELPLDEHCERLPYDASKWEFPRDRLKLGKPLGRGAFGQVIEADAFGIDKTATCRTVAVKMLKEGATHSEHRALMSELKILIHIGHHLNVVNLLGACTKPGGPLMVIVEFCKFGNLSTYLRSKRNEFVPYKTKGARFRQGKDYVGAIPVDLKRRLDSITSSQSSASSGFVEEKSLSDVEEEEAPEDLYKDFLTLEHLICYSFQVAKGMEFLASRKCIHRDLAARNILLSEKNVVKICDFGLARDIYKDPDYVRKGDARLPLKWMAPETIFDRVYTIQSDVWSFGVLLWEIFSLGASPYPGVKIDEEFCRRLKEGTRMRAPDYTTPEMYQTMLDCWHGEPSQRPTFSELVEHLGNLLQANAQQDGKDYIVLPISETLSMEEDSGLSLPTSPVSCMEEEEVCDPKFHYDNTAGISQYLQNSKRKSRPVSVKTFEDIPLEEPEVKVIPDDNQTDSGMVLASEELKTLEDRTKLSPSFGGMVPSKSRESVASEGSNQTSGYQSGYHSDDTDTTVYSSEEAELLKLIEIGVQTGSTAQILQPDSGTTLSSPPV
Briefly: ProQinase kinase panel. The class given is biochemical. The note with it: read-out: Inh (%) at 1µM, VEGF-R2. On the procedure: as §1

T13 sequence (O60674 whole entry): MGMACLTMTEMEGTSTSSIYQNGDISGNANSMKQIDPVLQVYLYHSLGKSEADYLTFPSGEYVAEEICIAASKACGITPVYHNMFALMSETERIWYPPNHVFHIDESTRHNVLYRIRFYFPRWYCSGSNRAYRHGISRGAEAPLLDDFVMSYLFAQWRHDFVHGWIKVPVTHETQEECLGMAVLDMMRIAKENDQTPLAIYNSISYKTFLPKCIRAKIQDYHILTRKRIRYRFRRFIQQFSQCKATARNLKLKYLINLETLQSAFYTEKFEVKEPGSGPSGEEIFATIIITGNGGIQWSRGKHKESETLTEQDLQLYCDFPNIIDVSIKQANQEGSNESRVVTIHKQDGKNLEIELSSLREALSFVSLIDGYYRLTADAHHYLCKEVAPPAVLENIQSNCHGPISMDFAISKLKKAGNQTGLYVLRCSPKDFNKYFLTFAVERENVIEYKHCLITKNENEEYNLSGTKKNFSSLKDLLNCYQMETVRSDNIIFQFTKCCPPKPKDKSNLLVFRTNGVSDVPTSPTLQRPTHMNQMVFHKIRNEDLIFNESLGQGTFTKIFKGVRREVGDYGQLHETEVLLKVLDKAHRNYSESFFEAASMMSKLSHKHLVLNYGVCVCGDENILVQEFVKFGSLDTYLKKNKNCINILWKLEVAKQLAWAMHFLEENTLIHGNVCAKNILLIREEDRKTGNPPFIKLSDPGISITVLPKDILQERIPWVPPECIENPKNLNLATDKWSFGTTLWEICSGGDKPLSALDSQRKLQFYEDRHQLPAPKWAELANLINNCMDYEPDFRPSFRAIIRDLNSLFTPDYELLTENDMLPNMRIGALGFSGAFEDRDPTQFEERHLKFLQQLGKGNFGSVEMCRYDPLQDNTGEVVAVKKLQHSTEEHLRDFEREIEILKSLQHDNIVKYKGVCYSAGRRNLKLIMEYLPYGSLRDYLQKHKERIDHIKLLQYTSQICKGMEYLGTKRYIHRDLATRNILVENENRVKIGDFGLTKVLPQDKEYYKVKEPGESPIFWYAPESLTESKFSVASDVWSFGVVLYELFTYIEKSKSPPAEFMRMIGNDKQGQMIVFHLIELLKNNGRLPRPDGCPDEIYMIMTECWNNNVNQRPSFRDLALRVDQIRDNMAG

For `CS(=O)(=O)N1CCN(Cc2cc3c(N4CCOCC4)nc(-c4cnc(N)nc4)cn3n2)CC1` [ETP-47037], the “Inhibition of PI3K downstream targets PRAS40 (T246) and pS6 (S235/236) (in words)” value in experiment [1] was “bona fide inhibitors of the PI3K/AKT axis”. Besides, the inhibition at 1 µM at AKT2 is -7.5%; at B-RAF-V600E, 6.5%; at CDK8-CycC, -4.5%; on CHK1 it was 15.5%; at CHK2, 0.5%; on DYRK1A it was -1%. Moreover, the inhibition at 1 µM on EGF-R came out at 22.5%; on FAK it was 14.5%; on FGF-R1, 6.5%; at IGF1-R, 2%; on IKK-beta it was 1%; on INS-R it was 5%. Further, the inhibition at 1 µM at JAK2 is 2%; on KIT, 9%; on MEK1 it was -15%; on MET it was 3%; on PAK1, -3.5%; at PDGFR-alpha, 4%. Also, the inhibition at 1 µM was 7% on PDK1; -4.5% at RPS6KA1; 0.5% on SGK1; 26% at SRC; 21.5% at VEGF-R2.

`Cc1cnc2c(N3CCOCC3)nc(-c3ccc(NC(=O)Nc4ccc(C(=O)N5CCN(C)CC5)cc4)cc3)cn12` [ETP-47228]: the “Inhibition of PI3K downstream targets PRAS40 (T246) and pS6 (S235/236) (in words)” value in experiment [1] is listed as “bona fide inhibitors of the PI3K/AKT axis”. In addition, the inhibition at 1 µM at AKT2 is -8%; at B-RAF-V600E, 11.5%; at CDK8-CycC it was 1%; at CHK1, -11.5%; at CHK2 it was 3%; on DYRK1A it was 4%. Further, the inhibition at 1 µM on EGF-R was 0.5%; at FAK, -7.5%; on FGF-R1, -3.5%; at IGF1-R, -19%; at IKK-beta, -10%; at INS-R, -3%. The inhibition at 1 µM at JAK2 is 4%; at KIT, 6.5%; at MEK1, -3%; at MET it was 3%; on PAK1 it was 1%; at PDGFR-alpha it was 1%. Moreover, the inhibition at 1 µM at PDK1 is -9%; on RPS6KA1, -1.5%; at SGK1 it was 0.5%; on SRC, 5%; at VEGF-R2, -3%.
